Among the data in US20240294551A1 (AMGEN INC., priority 2022, published 2024) are IC50 values, retold here.

Molecules are shown by their SMILES.

The target of assay [1] is His-tagged KRAS G12D protein (Homo sapiens (Human), UniProt P01116, G12D). In words: KRAS G12D TR-FRET Assay. Particulars: read-out: KRAS G12D Binding IC50. The assay is classed as binding. In short, it runs like this: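 Each incubation ran at room temperature: enzyme with compound for 30 minutes, peptide for one hour, and detection reagents (0.4 nM europium anti-6×His, 5 nM streptavidin-d2) for one hour more. Protein and peptide stocks were each diluted to 20 nM before addition.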

Assay [2] relates to MIA PaCa-2 cells. In words: MIA PaCa-2 CTG Assay (CellTiter-Glo cell viability). The assay is classed as cell-based, human. Particulars: Homo sapiens; Mia PaCa-2, 72 h; second value of the cell; read-out: G12D/C/V Cell Proliferation CTG (72 h) Mia PaCa-2. In short, it runs like this:
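IC50 values come from a 4-parameter logistic fit of CellTiter-Glo luminescence, normalized to DMSO control, after 72 h compound exposure at 37° C, 5% CO2. Cells grew in RPMI 1640 plus 10% FBS and were seeded at 1.67E+04 cells/mL one night before dosing.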

Assay [3] deals with Phosphorylation of ERK1/2 in AsPC-1 cells. In words: Phospho-ERK1/2 MSD Assay. The assay is classed as cell-based, human. The note with it: Homo sapiens, ASPC1, 2 h, read-out: 2 h p-ERK (AsPC-1 cells), IC50. In short, it runs like this:
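Read-out: MSD electrochemiluminescent detection of phosphorylated ERK1/2 in whole-cell lysates, fitted to a 4-parameter logistic curve for IC50. Prior to lysis, AsPC-1 cells (25,000 per well) received a 2 h compound dose-response at 37 °C.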

The subject of assay [4] is AsPC-1 cells. In words: AsPC-1 CTG Assay (CellTiter-Glo cell viability). The assay is classed as cell-based, human. Particulars: Homo sapiens, ASPC1, 72 h, AsPC-1, 72 h; first value of the cell; read-out: G12D/C/V Cell Proliferation CTG (72 h) AsPC-1. In short, it runs like this:
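IC50 values derive from 4-parameter logistic fits of CellTiter-Glo luminescence, expressed relative to DMSO. Compound dilution series were applied to overnight-seeded AsPC-1 or SW620 cells (RPMI 1640, 10% FBS) for 72 h at 37 °C, 5% CO2.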

The target in assay [5] is GDP-bound KRAS protein (aa 1-169), containing both G12D and C118A amino acid substitutions (Homo sapiens (Human), UniProt P01116, C118A/G12D). Description: KRAS G12D Coupled Nucleotide Exchange Assay. Type of assay: biochemical. The note with it: read-out: KRAS G12D Coupled Exchange IC50.
The test system of assay [6] is SW620 cells. Description: SW620 CTG Assay (CellTiter-Glo cell viability). Type of assay: cell-based, human. The note with it: Homo sapiens, SW-620; SW620, 72 h; third value of the cell; read-out: G12D/C/V Cell Proliferation CTG (72 h) SW620. As to the method:
AsPC-1 and SW620 CTG Assay Protocols
AsPC-1 (human pancreatic adenocarcinoma; ATCC CRL-1682) or SW620 (human colon adenocarcinoma; ATCC CCL-227) cells were cultured in RPMI 1640 medium containing 10% fetal bovine serum and 1× penicillin/streptomycin/L-glutamine. Cells were seeded in 384-well plates at a density of 3.33E+04 cells/mL and incubated at 37° C., 5% CO2, overnight. Serially-diluted compound or DMSO was added to the cells, and plates were incubated at 37° C., 5% CO2 for 72 h. Cell viability was measured using a CellTiter-Glo® Luminescent Cell Viability Assay kit (Promega) according to the manufacturer's protocol. The luminescence signal of treated samples was normalized to DMSO control, and data were analyzed using a 4-parameter logistic model to calculate IC50 values.

Sequence of His-tagged KRAS G12D protein (P01116 other isoform, or with tags, fused parts or gaps G12D): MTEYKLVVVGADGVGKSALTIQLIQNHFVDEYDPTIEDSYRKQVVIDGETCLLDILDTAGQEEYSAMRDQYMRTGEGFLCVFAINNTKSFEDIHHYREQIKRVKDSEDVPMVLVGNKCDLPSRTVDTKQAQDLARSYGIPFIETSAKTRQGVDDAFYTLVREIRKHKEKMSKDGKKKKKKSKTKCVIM
Sequence of GDP-bound KRAS protein (aa 1-169), containing both G12D and C118A amino acid substitutions (P01116 other isoform, or with tags, fused parts or gaps G12D/C118A): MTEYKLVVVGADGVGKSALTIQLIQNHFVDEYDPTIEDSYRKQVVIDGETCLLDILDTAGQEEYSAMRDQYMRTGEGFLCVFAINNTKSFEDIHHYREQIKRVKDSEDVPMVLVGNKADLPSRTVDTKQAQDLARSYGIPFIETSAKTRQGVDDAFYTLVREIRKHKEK

As for `C[C@@]12CCCN(C1)c1nc(OC[C@@]34CCCN3C[C@H](F)C4)nc3c(F)c(ncc13)-c1cc(O)cc3ccc(F)c(c13)CCCC(=O)N2` [Example 4, (15R)-22,31-Difluoro-8-(((2R,7aS)-2-fluorotetrahydro-1H-pyrrolo[1,2-a]pyrrol-7a(5H)-yl)methoxy)-27-hydroxy-15-methyl-3,7,9,11,16-pentaazahexacyclo[19.7.1.1˜2,6˜.1˜11,15˜.0˜5,10˜.0˜25,29˜]hentriaconta-1(28),2(31),3,5,7,9,21,23,25(29),26-decaen-17-one bis(2,2,2-trifluoroacetate)], the IC50 in assay [1] was determined as 4 nM; in assay [2], 5 nM; in assay [3], 3 nM; in assay [4], 14 nM; in assay [5], 2 nM; in assay [6] it was 7 nM.
`Cc1c2ncc3c(nc(OC[C@@]45CCCN4C[C@H](F)C5)nc13)N1CCC[C@](C)(C1)NC(=O)CCCc1c(F)ccc3cc(O)cc-2c13` [Example 18, (15R)-22-Fluoro-8-(((2R,7aS)-2-fluorotetrahydro-1H-pyrrolo[1,2-a]pyrrol-7a(5H)-yl)methoxy)-27-hydroxy-15,31-dimethyl-3,7,9,11,16-pentaazahexacyclo[19.7.1.1˜2,6˜.1˜11,15˜.0˜5,10˜.0˜25,29˜]hentriaconta-1(28),2(31),3,5,7,9,21,23,25(29),26-decaen-17-one]: the IC50 came to 6 nM in assay [1]; 29 nM in assay [2]; 12 nM in assay [3]; 82 nM in assay [4]; 3 nM in assay [5]; 32 nM in assay [6].
Regarding `Cc1cc2[nH]ncc2c2c1CCCCC(=O)O[C@@H]1CCCN(C1)c1nc(OC[C@@]34CCCN3C[C@H](F)C4)nc3c(F)c-2ncc13` [Example 31, (17R)-30-Fluoro-24-(((2R,7aS)-2-fluorotetrahydro-1H-pyrrolo[1,2-a]pyrrol-7a(5H)-yl)methoxy)-9-methyl-16-oxa-5,6,21,23,25,29-hexaazahexacyclo[24.3.1.1˜17,21.0˜2,10˜.0˜3,7˜.0˜22,27˜]hentriaconta-1(30),2,4,7,9,22,24,26,28-nonaen-15-one bis(2,2,2-trifluoroacetate)], the results for the IC50 in assay [2], in assay [3] and in assay [6] were 170 nM, 33 nM and 133 nM, respectively.
For `O=C1OC[C@@H]2C[C@@H]2c2c(Cl)cc3[nH]ncc3c2-c2ncc3c(nc(OC[C@@]45CCCN4C[C@H](F)C5)nc3c2F)N2CCC[C@H](C2)O1` [Example 45, (11S,13R,18R)-9-Chloro-31-fluoro-25-(((2R,7aS)-2-fluorotetrahydro-1H-pyrrolo[1,2-a]pyrrol-7a(5H)-yl)methoxy)-15,17-dioxa-5,6,22,24,26,30-hexaazaheptacyclo[25.3.1.1˜18,22˜.0˜2,10˜.0˜3,7˜.0˜11,13˜.0˜23,28˜]dotriaconta-1(31),2,4,7,9,23,25,27,29-nonaen-16-one bis(2,2,2-trifluoroacetate)], the IC50 worked out at 2 nM in assay [1]; 10 nM in assay [2]; 1 nM in assay [3]; 50 nM in assay [4]; 1 nM in assay [5]; 10 nM in assay [6].
For the molecule `O=C1CCCCc2c(Cl)cc3[nH]ncc3c2-c2ncc3c(nc(OC[C@@]45CCCN4C[C@H](F)C5)nc3c2F)N2CCCC[C@H](C2)N1` [Example 65, (26R)-18-Chloro-32-fluoro-4-(((2R,7aS)-2-fluorotetrahydro-1H-pyrrolo[1,2-a]pyrrol-7a(5H)-yl)methoxy)-1,3,5,9,14,15,25-heptaazahexacyclo[24.4.1.1˜6,10˜.0˜2,7˜.0˜11,19˜.0˜12,16˜]dotriaconta-2,4,6,8,10(32),11,13,16,18-nonaen-24-one bis(2,2,2-trifluoroacetate)], the IC50 in assay [1] was found to be 6 nM; in assay [2], 160 nM; in assay [3] it was 24 nM; in assay [4], 320 nM; in assay [5] it was 2 nM; in assay [6] it was 52 nM.
As to `Cc1cc2[nH]ncc2c2c1[C@H]1C[C@H]1COC(=O)O[C@@H]1CCCN(C1)c1nc(OC[C@@]34CCCN3C[C@H](F)C4)nc3c(F)c-2ncc13` [Example 110], the IC50 turned out to be 3 nM in assay [1]; 20 nM in assay [2]; 4 nM in assay [3]; 80 nM in assay [4]; 2 nM in assay [5]; 10 nM in assay [6].
For `O=C1OCCCc2c(Cl)cc3[nH]ncc3c2-c2ncc3c(nc(OC[C@@]45CCCN4C[C@H](F)C5)nc3c2F)N2CCC[C@H](C2)O1` [Example 115], the IC50 worked out at 3 nM in assay [1]; 60 nM in assay [2]; 10 nM in assay [3]; 60 nM in assay [4]; 1 nM in assay [5]; 27.4 nM in assay [6].
Take `Cc1cc2[nH]ncc2c2c1CCCCOC[C@@H]1CCCN(C1)c1nc(OC[C@@]34CCCN3C[C@H](F)C4)nc3c(F)c-2ncc13` [Example 129, (17R)-30-Fluoro-24-(((2R,7aS)-2-fluorotetrahydro-1H-pyrrolo[1,2-a]pyrrol-7a(5H)-yl)methoxy)-9-methyl-15-oxa-5,6,21,23,25,29-hexaazahexacyclo[24.3.1.1˜17,21˜.0˜2,10˜.0˜3,7˜.0˜22,27˜]hentriaconta-1(30),2,4,7,9,22,24,26,28-nonaene bis(2,2,2-trifluoroacetate)]: the IC50 in assay [1] was determined as 4 nM; in assay [2], 90 nM; in assay [3] it was 20 nM; in assay [4] it was 170 nM; in assay [5], 2 nM; in assay [6], 67.4 nM.
As for `CN(C)CC1(COc2nc3c4cnc(c(F)c4n2)-c2c(c(Cl)cc4[nH]ncc24)CCCOC(=O)O[C@@H]2COCCN3C2)CC1` [Example 195, (26S)-18-chloro-4-((1-((dimethylamino)methyl)cyclopropyl)methoxy)-32-fluoro-23,25,28-trioxa-1,3,5,9,14,15-hexaazahexacyclo[24.4.1.1~6,10~.0~2,7~.0~11,19~.0~12,16~]dotriaconta-2,4,6,8,10(32),11,13,16,18-nonaen-24-one], the IC50 is 31 nM in assay [2], 6 nM in assay [3], 67 nM in assay [4] and 50 nM in assay [6].
`O=C1OCCc2c(Cl)cc3[nH]ncc3c2-c2ncc3c(nc(OC[C@@]45CCCN4C[C@H](F)C5)nc3c2F)N2CCC[C@@H](CO1)C2` [Example 221]: the IC50 in assay [1] turned out to be 4 nM; in assay [3], 7.1 nM; in assay [4], 209 nM; in assay [5], 1 nM; in assay [6], 75 nM.
In the same order, the values of `C[C@@]12CCCN(C1)c1nc(OC[C@@]34CCCN3C[C@H](F)C4)nc3c(F)c(ncc13)-c1c(c(Cl)cc3[nH]ncc13)CCCOC(=O)O2` [Example 327, (17R)-9-chloro-30-fluoro-24-(((2R,7aS)-2-fluorotetrahydro-1H-pyrrolo[1,2-a]pyrrol-7a(5H)-yl)methoxy)-17-methyl-14,16-dioxa-5,6,21,23,25,29-hexaazahexacyclo[24.3.1.1~17,21~.0~2,10~.0~3,7~.0~22,27~]hentriaconta-1(30),2,4,7,9,22,24,26,28-nonaen-15-one] are 4 nM, 8.4 nM, 13 nM, 2 nM and 24 nM.
In the same order, the values of `O=C1OCCCc2c(Cl)cc3[nH]ncc3c2-c2ncc3c(nc(OC[C@@]45CCCN4C[C@H](F)C5)nc3c2F)N2CCC[C@](CF)(C2)O1` [Example 336, (17R)-9-chloro-30-fluoro-17-(fluoromethyl)-24-(((2R,7aS)-2-fluorotetrahydro-1H-pyrrolo[1,2-a]pyrrol-7a(5H)-yl)methoxy)-14,16-dioxa-5,6,21,23,25,29-hexaazahexacyclo[24.3.1.1~17,21~.0~2,10~.0~3,7~.0~22,27~]hentriaconta-1(30),2,4,7,9,22,24,26,28-nonaen-15-one] are 3 nM, 12 nM, 31 nM, 3 nM and 49 nM.
